# Results from the OPERA property sets (Mansouri et al. 2018).
row,logP,Structure (SMILES)
1,2.7,O=C(Cc1ccccc1)Nc1ccccc1
2,2.68,COc1ccccc1NC(=O)Cc1ccccc1
3,2.31,CNc1cccc(NC(=O)Cc2ccccc2)c1
4,3.1,O=C(Cc1ccccc1)Nc1cccc(F)c1
5,2.4,O=C(Cc1ccccc1)Nc1ccccc1O
6,2.62,O=C(Cc1ccccc1)Nc1ccccc1F
7,2.86,COc1cccc(NC(=O)Cc2ccccc2)c1
8,2.22,O=C(Cc1ccccc1)Nc1cccc(O)c1
9,3.05,CC(=O)N(c1ccccc1)c1ccc(C)cc1
10,2.93,O=C(Cc1ccccc1)Nc1cccc([N+](=O)[O-])c1
11,3.91,O=C(Cc1ccccc1)Nc1cccc(I)c1
12,1.45,Nc1ccccc1NC(=O)Cc1ccccc1
13,2.86,O=C(Cc1ccccc1)Nc1ccc(F)cc1
14,2.73,O=C(Cc1ccccc1)Nc1ccccc1[N+](=O)[O-]
15,3.7,O=C(Cc1ccccc1)Nc1ccc(Br)cc1
16,3.54,O=C(Cc1ccccc1)Nc1ccc(Cl)cc1
17,3.18,O=C(Cc1ccccc1)Nc1ccc([N+](=O)[O-])cc1
18,2.49,COc1ccc(NC(=O)Cc2ccccc2)cc1
19,3.14,Cc1cccc(NC(=O)Cc2ccccc2)c1
20,2.59,CCNc1cccc(NC(=O)Cc2ccccc2)c1
21,1.82,O=C(Cc1ccccc1)Nc1ccc(O)cc1
22,2.62,CC(=O)c1cccc(NC(=O)Cc2ccccc2)c1
23,3.47,CCc1cccc(N(C(C)=O)c2ccccc2)c1
24,3.23,CCOc1cccc(NC(=O)Cc2ccccc2)c1
25,2.75,N#Cc1cccc(NC(=O)Cc2ccccc2)c1
26,1.59,Nc1cccc(NC(=O)Cc2ccccc2)c1
27,2.75,CC(=O)c1ccc(NC(=O)Cc2ccccc2)cc1
28,2.37,CC(=O)Oc1cccc(NC(=O)Cc2ccccc2)c1
29,2.32,CS(=O)(=O)Oc1cccc(NC(=O)Cc2ccccc2)c1
30,3.77,O=C(Cc1ccccc1)Nc1cccc(Br)c1
